Measured values taken from patent US4428936A, “Antibacterial composition for medical use” (Toyama Chemical Co., Ltd., priority 1978, dated 1984).

What was measured:
[1] = tested on: Klebsiella pneumoniae Y-4; assay: Minimum inhibitory concentration; assay type: cell-based; settings: Y4; Klebsiella pneumoniae Y-4 strain
Protocol: (§1) The minimum inhibitory concentration of T-1551 Na or Methicillin sodium against Escherichia coli TK-3 strain or Kleosiella pneumoniae Y-4 strain was greater than 800 μg/ml in each case.

[2] = tested on: Escherichia coli TK-3; assay: Minimum inhibitory concentration; assay type: cell-based; settings: TK3; Escherichia coli TK-3 strain
Protocol: as §1

[3] = tested on: Pseudomonas aeruginosa S-111; assay: Growth-inhibition test on clinically isolated strain (agar, about 10^8 cells/ml); assay type: cell-based; set-up: key: (+) means that the test bacterium grew; (-) means that the test bacterium did not grow; settings: T-1551 Na 0 μg/ml; Methicillin sodium alone by line b92-b100: 3200,1600,800,400,200,100,50,25,12.5 μg/ml; 18 hours, 37° C
Protocol: (§2) Heart Infusion agar containing a prescribed amount of Methicillin sodium or T-1551 Na was inoculated with the test bacterium at a rate of about 10^8 cells/ml. After incubation for 18 hours at 37° C., the growth of the test bacterium was inspected.

[4] = tested on: Klebsiella pneumoniae Y-4; assay: as above; assay type: cell-based; set-up: key: (+) means that the test bacterium grew; (-) means that the test bacterium did not grow; settings: T-1551 Na 0 μg/ml; Methicillin sodium alone by line b62-b70: 3200,1600,800,400,200,100,50,25,12.5 μg/ml; 18 hours, 37° C
Protocol: as §2

[5] = tested on: Escherichia coli TK-3; assay: as above; assay type: cell-based; set-up: key: (+) means that the test bacterium grew; (-) means that the test bacterium did not grow; settings: T-1551 Na 0 μg/ml; Methicillin sodium alone by line b32-b40: 3200,1600,800,400,200,100,50,25,12.5 μg/ml; 18 hours, 37° C
Protocol: as §2

[6] = tested on: K. pneumoniae Y-53; assay: Effect of combined use on experimental infection in mice (protection); assay type: in vivo, mice (ICR strain) infected with K. pneumoniae; settings: challenge dose 1.0 × 10^7 cells/mouse, peritoneal; subcutaneous administration one and two hours after inoculation
From the text: (§3) Male mice (5 mice per group) of the ICR strain, 4 weeks of age, were peritoneally inoculated with the prescribed number of pathogenic bacteria suspended in 5% mucin. After one hour and two hours following the inoculation, test preparations shown in Table 5 were subcuataneously administered to examine the protection effect.

[7] = tested on: K. pneumoniae Y-4; assay: as above; assay type: in vivo, mice (ICR strain) infected with K. pneumoniae; settings: challenge dose 5.7 × 10^7 cells/mouse, peritoneal; subcutaneous administration one and two hours after inoculation
From the text: as §3

[8] = tested on: Pseudomonas aeruginosa GN 3345; assay: Growth-inhibition test with potassium clavulanate; assay type: cell-based; set-up: key: (+) means that the test bacterium grew; (-) means that the test bacterium did not grow; settings: T-1551 Na 0 μg/ml; potassium clavulanate alone by line b219-b228: 100,(unlabelled),25,(unlabelled),12.5,(unlabelled),3.1,(unlabelled),0.4,(unlabelled) μg/ml
Protocol: as §2
(§4) The same operation as in Test Example 1 was repeated, except that the Methicillin sodium was replaced by potassium clavulanate and the test bacteria were replaced by those shown in Tables 6, 7 and 8, to obtain the results shown in Tables 6, 7 and 8.

[9] = tested on: Escherichia coli GN 6299; assay: Growth-inhibition test with potassium clavulanate; assay type: cell-based; set-up: key: (+) means that the test bacterium grew; (-) means that the test bacterium did not grow; settings: T-1551 Na 0 μg/ml; potassium clavulanate alone by line b171,b173-b181: 100,(unlabelled),25,(unlabelled),6.25,(unlabelled),1.6,(unlabelled),0.4,(unlabelled) μg/ml
Protocol: as §2, §4

[10] = tested on: Klebsiella pneumoniae GN 69; assay: Growth-inhibition test with potassium clavulanate; assay type: cell-based; set-up: key: (+) means that the test bacterium grew; (-) means that the test bacterium did not grow; settings: T-1551 Na 0 μg/ml; potassium clavulanate alone by line b195,b197-b205: 100,(unlabelled),25,(unlabelled),6.25,(unlabelled),1.6,(unlabelled),0.4,(unlabelled) μg/ml
Protocol: as §2, §4

MIC [1] | MIC [2] | Structure (SMILES) | growth of the test bacterium [3] | growth of the test bacterium [4] | growth of the test bacterium [5] | ED50 (protection effect) [6] | ED50 (protection effect) [7] | growth of the test bacterium [8] | growth of the test bacterium [9] | growth of the test bacterium [10]
> 800 µg/mL | > 800 µg/mL | COc1cccc(OC)c1C(=O)N[C@@H]1C(=O)N2[C@@H]1SC(C)(C)[C@@H]2C(=O)O [Methicillin sodium, reference compound] | + | + | + | > 46.6 mg/mouse | > 50 mg/mouse |  |  | 
 |  | O=C(O)[C@H]1/C(=C/CO)O[C@@H]2CC(=O)N21 [Potassium clavulanate, potassium clavulanate, reference compound] |  |  |  |  |  | + | - and + | - and +
